From patent US11235029B2, “Methods for treating heart failure with a TRKB agonist” (Temple University-Of The Commonwealth System of Higher …, priority 2017, dated 2022)

Assays:
[1] = test system: mice with myocardial infarction; assay: chronic infusion of TrkB agonist in mice with myocardial infarction (echocardiography, fibrosis, heart rate); assay type: in vivo
Description: FIG. 7, comprising FIG. 7A through FIG. 7C, depicts experimental results. FIG. 7A depicts rescue of cardiac defects following MI resulting from chronic infusion of LM22A-4, a specific agonist of TrkB (Massa S M, et a. J Clin Invest. 2010; 120:1774-85) at 0.2 mg/kg/day in saline, started 1 week after MI. […] FIG. 7B depicts cardiac tissue sections and quantitation of fibrosis observed in sham, MI, and MI+LM22A-4 groups. Compared to the MI group without treatment, fibrosis was lower in TrkB agonist-treated hearts.
FIG. 7A depicts rescue of cardiac defects following FIG. 7A depicts rescue of cardiac defects following MI resulting from chronic infusion of LM22A-4, a specific agonist of TrkB (Massa S M, et al. J Clin Invest. 2010; 120:1774-85), at 0.2 mg/kg/day in saline, started 1 week after MI.
Overall fibrosis was lower in TrkB agonist-treated hearts (FIG. 7B). FIG. 7B depicts cardiac tissue sections and quantitation of fibrosis observed in sham, MI, and MI+LM22A-4 groups. Compared to the MI group without treatment, fibrosis was lower in TrkB agonist-treated hearts.

[2] = test system: eNOS; assay: immunoblot of eNOS phosphorylated at serine 1177 in myocytes; assay type: cell-based; details: acute infusion, 100 nM
Description: FIG. 8 depicts an immunoblot of eNOS phosphorylated at serine 1177 (^ser1177p-eNOS) and total eNOS (t-eNOS), taken from myocytes under control conditions (NS) and treated with LM22A-4.
Another possible mechanism of protection granted by TrkB stimulation is eNOS stimulation. […] Thus, it is plausible that TrkB agonists enhance eNOS signaling. FIG. 8 depicts an immunoblot of eNOS phosphorylated at serine 1177 (^ser1177p-eNOS) and total eNOS (t-eNOS), taken from myocytes under control conditions (NS) and treated with LM22A-4.

[3] = test system: BDNF; assay: BDNF immunoblot of lysates from isolated control myocytes; assay type: cell-based
[4] = 0.2 mg/kg/day in saline, chronic infusion started 1 week after MI, 4 weeks after severe MI

In the case of O=C(NCCO)c1cc(C(=O)NCCO)cc(C(=O)NCCO)c1 [LM22A-4, N,N′,N″-tris(2-hydroxyethyl)-1,3,5-benzenetricarboxamide], the LVDs [1, 4] is reported as 6.1±0.25 mm, the “ejection fraction (% EF)” value [1, 4] is reported as 23.3±2.1% and the “fibrosis compared to the MI group without treatment” value ([1]; cardiac tissue sections, MI+LM22A-4 group) is reported as “lower”. The heart rate ([1]; chronic infusion, MI mice) was 494±17.8 bpm, the “eNOS activation by phosphorylation at serine 1177” value [2] was “activates eNOS” and the “myocardial BDNF (immunoblot)” value [3] was “induced myocardial BDNF”.
